Experiment [1] relates to Male IGS rats. As to the kind of experiment: Rat Novel Object Recognition Study. Format: in vivo. How it is done:
Rat Novel Object Recognition Study (Method Referred: PNAS, 101 (2003) 853-858)
Male IGS rats (9 weeks-old, Charles River Laboratories Japan, Inc.) were used in this study. Compound A and donepezil hydrochloride (reference substance) were orally administered at 60 min before training trial and before retention trial. Number of animals per group was 15. Open-field box (40×40×40 cm) with sawdust covering its floor was used in this study. As for the training trials, the animals were allowed to explore two identical objects (A1 and A2) for 3 min. The objects are plastic “LEGO bricks” that vary in shape, color, and size. […]
Exploration of an object was defined as pointing the nose to the object at a distance of <1 cm and/or touching it with the nose. DVD images were analyzed by an observer who was […] of the treatment condition. To assess cognitive performance, the time spent exploring the familiar (TA3) and novel (TB) object, and discrimination index (DI; (TB−TA3)/(TB+TA3)) was analyzed. […] To assess the overall levels of exploratory performance, total time spent exploring the both objects was analyzed.
For Compound A, discrimination index was analyzed using Bartlett's test followed by Dunnett's multiple comparison test. […] For donepezil, discrimination index was analyzed using F-test, followed by Student's t-test. […]

Experiment [2] has as its system Male IGS rats. As to the kind of experiment: Spontaneous alteration test in rats (scopolamine-induced impairment). Format: in vivo, rat. How it is done: Spontaneous Alteration Test in Rats (Method Referred: Eur. J. Pharmacol., 236 (1993) 341-345)
Male IGS rats (6 weeks-old, Charles River Laboratories Japan, Inc.) were used in this study. The scopolamine solution or saline was administered intraperitoneally 30 minutes after the administration of the test substance or vehicle. Thirty minutes after the injection, the rat was placed at the end of one arm toward to the end of the arm and was allowed to move freely through the maze for 8-min test session. The sequence of arm entries was recorded manually. Alteration was defined as entry into all three arms on consecutive choices. The percent alteration as an indicator of spontaneous alteration performance was calculated as (number of alterations/total number of arm entries minus 2)×100.
The effect of Compound A on the scopolamine-induced impairment of spontaneous alteration performance in rats was investigated. In the percent alterations, the values on saline- and scopolamine-treated groups were 75.2% and 53.9%, respectively.

Experiment [3] relates to Tg2576 mice. Briefly: Abeta reduction in Tg2576 mice. Format: in vivo. The note with it: 1 and 10 mg/kg BID orally, three weeks; soluble plus insoluble Abeta, ELISA. How it is done: Female Tg2576 mice that express the human amyloid precursor protein (APP) gene with the Swedish mutation (APPSWE) were purchased from Taconic Farms (catalog #001349-TF).
Tg2576 mice (31-week old at the beginning of the experiment) were dosed orally twice a day (BID) for 3 weeks with 0.1, 1, or 10 mg/kg Compound A in the vehicle consisting of 0.5% methylcellulose and 0.1% Tween 80. Mice were euthanized three hours after the last dose. Brain tissues were collected and homogenized in 5-volumes of ice-cold TBS buffer (50 mM Tris-HCl) containing 1% CHAPS and protease inhibitors. The homogenates were centrifuged at 14,000 g for 10 minutes at 4° C., and the resulting supernatants were collected as soluble pool of Abeta. The pellets were dissolved in the starting volume of 5 M guanidine in TBS buffer and the resulting homogenates were collected as insoluble pool of Abeta. Abeta1-40 and Abeta1-42 were quantified using commercially available ELISA kits according to the manufacture's instructions. Measurements were performed in duplicate. The final values of Abeta in the brain were expressed as nanograms per gram wet brain weight. Total Abeta levels were obtained by adding the values of the soluble and insoluble Abeta levels.
(ELISA stands for enzyme-linked immunosorbent assay.)

For experiment [4], the system named is rat hippocampus (Hip) ACh level. As to the kind of experiment: Increase of hippocampus ACh release in rats (microdialysis). Format: in vivo. The settings on record: direct injection (perfusion via dialysis probe, 120 min) into rat Hip; 100 nM eserine in aCSF. As to the method: Increase of Hippocampus ACh Release in Rats
Effects of Compound A on rat hippocampus (Hip) ACh level were tested using microdialysis in Male Wistar rats. One day before the start of the experiments, rats were anesthetized and guide cannula was implanted in the dorsal Hip. One day after surgery, a dialysis probe was inserted through a guide cannula in Hip and perfused with artificial cerebrospinal fluid (aCSF) containing 148 mM NaCl, 2.7 mM KCl, 1.2 mM CaCl2, 0.85 mM MgCl2, together with 100 nM eserine. After a 1 h equilibration period, sample collection began. Outflow fractions were collected every 20 min. After six stable baseline fractions were collected, the perfusate was replaced to aCSF containing Compound A with 100 nM eserine for 120 min, and then it was switched again to aCSF with 100 nM eserine alone. Dialysis fractions were then analyzed using high performance liquid chromatography with an electrochemical detection system. Isopropyl homocholine was used as internal standard. The amount of ACh in each dialysate sample was calculated from the peak height ratio of ACh/IPHC. ACh content was expressed as a percent of baseline calculated from the average of three samples preceding drug infusion.
ACh content was expressed as a percent of baseline calculated from the average of three samples preceding drug infusion.

For experiment [5], the system named is Abeta. The note with it: NPL 13; cited from earlier work.

Structures can show the parent of a compound that is named as a salt.

For the compound `COc1cc2c(cc1OC)C(=O)C(CC1CCN(Cc3ccccc3)CC1)C2` (stereo not drawn) [donepezil, donepezil hydrochloride, reference compound], the discrimination index result in experiment [1] (donepezil-treated group, orally, vs vehicle (p<0.05, Student's t-test)) is “statistically significant compared to that in vehicle-treated group”.

For `CC(C)n1c(=O)n(C(=O)NCC2CCN(CC3(O)CCOCC3)CC2)c2ccccc21` [Compound A, N-((1-((4-hydroxytetrahydro-2H-pyran-4-yl)methyl)piperidin-4-yl)methyl)-3-isopropyl-2-oxo-2,3-dihydro-1H-benzo[d]imidazole-1-carboxamide], the discrimination index result in experiment [1] (Compound A 0.1, 0.3, 1 mg/kg, orally 60 min before training and retention trial, vs vehicle (*p<0.05, **p<0.01, Dunnett)) is “statistically significant compared to that in vehicle-treated group”. For the same compound, the percent alteration result in experiment [2] (0.1 and 3 mg/kg, scopolamine-induced impairment) was “showed a tendency to improve without statistical significance”. Besides, the percent alteration entry in experiment [2] (doses of 0.3 and 1 mg/kg, scopolamine-induced impairment, vs vehicle-treated group (p<0.01)) is on record as “significantly increased the percent alterations”. Moreover, in experiment [3], the “total brain Abeta1-40 levels” value is reported as “significantly decreased total brain Abeta1-40 levels”; the “total brain Abeta1-42 levels” value was “dose-dependently and substantially decreased total brain Abeta1-42 levels”. For the same compound, the “ACh concentration (percent of baseline)” value in experiment [4] amounted to 187%.

As for `CN1[C@@H]2C[C@@H](OC(=O)[C@H](CO)c3ccccc3)C[C@H]1[C@@H]1O[C@@H]12` [scopolamine, reference compound], the percent alteration in experiment [2] (scopolamine-treated group (intraperitoneal), saline-treated group 75.2%, p<0.01) is on record as 53.9%.

For the compound `CC(C)n1c(=O)c(C(=O)NCCCN2CCCCC2)c(O)c2ccsc21` [PRX-03140], the “Abeta reduction in animal models” value in experiment [5] is “Abeta reducing tendency while those efficacies were not significant suppressions”.

The values are drawn from US8980922B2, “5-HT4 receptor agonists for the treatment of dementia” (Raqualia Pharma Inc., priority 2010, dated 2015).
